Reference: ChEMBL document CHEMBL1142618, “Mycalamide D, a new cytotoxic amide from the New Zealand marine sponge Mycale species” (J Nat Prod, 2000)

Tests used:
Type in all cases: functional, cell-based
P388 = experiment: Cytotoxicity against mouse P388 cells after 96 hrs by MTT assay; details: P388, 96 h
LLC-PK1 = experiment: Cytotoxicity against pig LLC-PK1 cells after 96 hrs by MTT assay; details: Sus scrofa, LLC-PK1, 96 h
[1] = Cytotoxicity against human H441 cells after 96 hrs by MTT assay; details: NCI-H441, 96 h
SH-SY5Y = experiment: Cytotoxicity against human SH-SY5Y cells after 96 hrs by MTT assay

Compound | IC50 (P388) | IC50 (LLC-PK1) | IC50 [1] | IC50 (SH-SY5Y)
C=C1C[C@](OC)([C@H](O)C(=O)N[C@H]2OCO[C@H]3[C@@H]2O[C@H](C[C@H](O)CO)C(C)(C)[C@@H]3OC)O[C@H](C)[C@@H]1C [MYCALAMIDE A] | 5.2 nM | 0.65 nM | 0.46 nM | 0.52 nM
C=C1C[C@](OC)([C@H](O)C(=O)N[C@H]2OCO[C@H]3[C@@H]2O[C@H](C[C@@H](CO)OC)C(C)(C)[C@@H]3OC)O[C@H](C)[C@@H]1C [MYCALAMIDE B] | 1.3 nM | 19.4 nM | 9.3 nM | 6.42 nM
C=C1C[C@](OC)([C@H](O)C(=O)N[C@H]2OCO[C@H]3[C@@H]2O[C@H](C[C@H](O)CO)C(C)(C)[C@@H]3O)O[C@H](C)[C@@H]1C [MYCALAMIDE D] | 65.5 nM |  |  | 
